According to article PMC6576746, “Rational discovery of dual-indication multi-target PDE/Kinase inhibitor for precision anti-cancer therapy using structural systems pharmacology” (PLoS Computational Biology, 2019):

Legend:
Test in all cases: cells
Design in all cases: species or system panel of human cancer cell lines; Eurofins OncoPanel proliferation; nuclei count by high-content fluorescence imaging, 10-point dose response
BM-1604 = conditions: BM-1604, 72 h, cell count, 3 days
In short: (§1)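 Cells in RPMI 1640/10% FBS or special medium received compound the day after seeding, with a time-zero plate; 3-day incubation at 37°C, 5% CO2. Nuclei imaged by fluorescence microscopy; 10 half-log doses from 100 μM, 0.1% DMSO. EC50, IC50, GI50 and activity area (0–10) from curve fits.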

BT20 = conditions: Homo sapiens, BT-20, 72 h, cell count, 3 days
In short: as §1

CHP-212 = conditions: Homo sapiens, CHP-212, 72 h, cell count, 3 days
In short: as §1

ChaGoK1 = conditions: Homo sapiens, ChaGo-K-1, 72 h, cell count, 3 days
In short: as §1

HCT-8 = conditions: Homo sapiens, HCT-8, 72 h, cell count, 3 days
In short: as §1

HT = conditions: Homo sapiens, HT, 72 h, cell count, 3 days
In short: as §1

Hs 888.Sk = conditions: 72 h, cell count, 3 days
In short: as §1

Hs 934.T = conditions: 72 h, cell count, 3 days
In short: as §1

LS-174T = conditions: Homo sapiens, LS174T, 72 h, cell count, 3 days
In short: as §1

MT-3 = conditions: MT-3, 72 h, cell count, 3 days
In short: as §1

SJRH30 = conditions: Homo sapiens, SJRH30, 72 h, cell count, 3 days
In short: as §1

SNU-1 = conditions: Homo sapiens, SNU1, 72 h, cell count, 3 days
In short: as §1

SU-DHL-8 = conditions: Homo sapiens, SU-DHL-8, 72 h, cell count, 3 days
In short: as §1

U266B1 = conditions: 72 h, cell count, 3 days
In short: as §1

[1] = 50% of maximum possible response

- IC50 (BT20; [1]): > 100 µM
- GI50 (BT20; corrected for time zero): 64.2 µM
- EC50 (BT20; curve inflection point): > 100 µM
- IC50 (HCT-8; [1]): 23.9 µM
- GI50 (HCT-8; corrected for time zero): 23.3 µM
- EC50 (HCT-8; curve inflection point): 23.2 µM
- IC50 (SNU-1; [1]): 6.31 µM
- GI50 (SNU-1; corrected for time zero): 5.53 µM
- EC50 (SNU-1; curve inflection point): 5.52 µM
- IC50 (SU-DHL-8; [1]): 0.604 µM
- GI50 (SU-DHL-8; corrected for time zero): 0.512 µM
- EC50 (SU-DHL-8; curve inflection point): 0.604 µM
- IC50 (U266B1; [1]): 95.7 µM
- GI50 (U266B1; corrected for time zero): 46.2 µM
- EC50 (U266B1; curve inflection point): 95.7 µM
Structure (SMILES): C[C@@H]1CC(=O)NN=C1c1ccc(NN=C(C#N)C#N)cc1 [levosimendan]
- IC50 (BM-1604; [1]): 12.6 µM
- GI50 (BM-1604; corrected for time zero): 7.44 µM
- EC50 (BM-1604; curve inflection point): 12.6 µM
- IC50 (CHP-212; [1]): 84.9 µM
- GI50 (CHP-212; corrected for time zero): 49.1 µM
- EC50 (CHP-212; curve inflection point): 84.9 µM
- IC50 (ChaGoK1; [1]): 84.9 µM
- GI50 (ChaGoK1; corrected for time zero): 57.2 µM
- EC50 (ChaGoK1; curve inflection point): 84.9 µM
- IC50 (HT; [1]): 69.4 µM
- GI50 (HT; corrected for time zero): 56.9 µM
- EC50 (HT; curve inflection point): 69.4 µM
- IC50 (Hs 888.Sk; [1]): > 100 µM
- GI50 (Hs 888.Sk; corrected for time zero): 47.6 µM
- EC50 (Hs 888.Sk; curve inflection point): > 100 µM
- IC50 (Hs 934.T; [1]): > 100 µM
- GI50 (Hs 934.T; corrected for time zero): > 100 µM
- EC50 (Hs 934.T; curve inflection point): > 100 µM
- IC50 (LS-174T; [1]): > 100 µM
- GI50 (LS-174T; corrected for time zero): > 100 µM
- EC50 (LS-174T; curve inflection point): > 100 µM
- IC50 (MT-3; [1]): > 100 µM
- GI50 (MT-3; corrected for time zero): > 100 µM
- EC50 (MT-3; curve inflection point): > 100 µM
- IC50 (SJRH30; [1]): 11.4 µM
- GI50 (SJRH30; corrected for time zero): 7.7 µM
- EC50 (SJRH30; curve inflection point): 9.67 µM
